The source of these data is patent publication US7592467B2, “Inhibitors of prolyl endopeptidase” (Probiodrug AG, priority 2005, dated 2009).

Experiment [1] has as its target T1, Recombinant human prolyl oligopeptidase (Homo sapiens, UniProt P48147).
T1 construct: made in house; host or cells: E. coli
T1 sequence (P48147 1-710): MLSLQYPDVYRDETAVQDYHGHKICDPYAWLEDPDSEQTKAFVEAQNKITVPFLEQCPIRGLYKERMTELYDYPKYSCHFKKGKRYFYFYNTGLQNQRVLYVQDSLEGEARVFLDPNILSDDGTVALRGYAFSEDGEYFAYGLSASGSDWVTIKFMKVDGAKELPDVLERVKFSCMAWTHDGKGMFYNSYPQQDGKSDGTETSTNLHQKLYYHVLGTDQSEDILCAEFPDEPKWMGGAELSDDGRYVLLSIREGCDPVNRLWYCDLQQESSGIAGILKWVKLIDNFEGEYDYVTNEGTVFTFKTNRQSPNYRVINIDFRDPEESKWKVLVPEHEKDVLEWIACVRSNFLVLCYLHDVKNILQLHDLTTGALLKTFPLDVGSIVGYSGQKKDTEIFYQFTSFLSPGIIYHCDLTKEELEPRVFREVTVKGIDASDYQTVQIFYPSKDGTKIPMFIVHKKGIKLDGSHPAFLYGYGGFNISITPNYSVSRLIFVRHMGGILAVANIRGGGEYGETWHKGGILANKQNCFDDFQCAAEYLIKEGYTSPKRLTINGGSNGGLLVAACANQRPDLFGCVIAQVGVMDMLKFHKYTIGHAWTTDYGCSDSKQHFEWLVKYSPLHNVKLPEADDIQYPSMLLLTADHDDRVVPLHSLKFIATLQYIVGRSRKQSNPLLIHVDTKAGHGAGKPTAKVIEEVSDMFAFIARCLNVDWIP
The experiment in a line: Determination of IC50- and Ki-values of PEP-inhibitors (chromogenic substrate Z-Gly-Pro-pNA). In kind it is biochemical. The conditions noted are these: substrate Z-Gly-Pro-pNA 0.15 mM, HEPES buffer pH 7.6, 30° C.; n.i. = no inhibition. The method, then: Biological Evaluation, Determination of IC50- and Ki-Values of PEP-Inhibitors
Recombinant human prolyl oligopeptidase was used for measurement. Recombinant expression was performed in E. coli under standard conditions as described elsewhere in the state of the art.
For activity measurements the chromogenic substrate Z-Gly-Pro-pNA was used in HEPES buffer pH 7.6 containing 50 mM HEPES, 200 mM NaCl, 1 mM EDTA, 1 mM DTT, 0.006% Brij35. Measurements were carried out at 30° C. Release of pNA were monitored continuously at 405 nm.
IC50 values were calculated using non-linear regression to a 4-parameter equation (Prism 4.0, GraphPad).
For Ki determination 4 substrate (0.15 mM, 0.08 mM 0.04 mM, 0.02 mM) and 7 inhibitor concentrations in an appropriate range were used. Calculations were performed by multiple non-linear regression analysis to the equation for competitive inhibition using GraFit 5.0 Software (Erithacus Software).

In experiment [2] the test system is U-343 and SH-SY5Y cells. The experiment in a line: β-Amyloid ELISA, secreted β-amyloid peptides 1-40 and 1-42. It counts as cell-based. The settings on record: Homo sapiens, inhibitor 20 μM, 24 hours, conditioned medium, untreated cells = 100%, cell line and peptide (1-40/1-42) not given, read-out: Extracellular Aβ-concentration, % of control. The method, then: The human glioma cell line, U-343 and the human neuroblastoma cell line, SH-SY5Y were maintained in Dulbecco's modified Eagle's medium (DMEM) containing 10% fetal bovine serum (Gibco BRL, Karlsruhe, Germany) and incubated at 37° C. in a 5% CO2 atmosphere. Culture media contained in general 60 μg/ml gentamycin (Gibco BRL, Karlsruhe, Germany).
To quantify intracellular and extracellular concentrations of 0-amyloid peptides, 1-40 and 1-42, U-343 and SH-SY5Y cells were cultured in 6 well plates (1.5×10^6 cells/well) and treated with specific PEP inhibitors (20 μM each) for 24 hours. For quantitation of secreted β-amyloid peptides the conditioned medium was collected and concentrated by lyophylisation. Likewise, after determination of the cell numbers/well (casy cell counter I, Schärfe System, Reutlingen, Germany), cells were lyzed with cell extraction buffer (Biosource, Solingen, Germany) according to the manufacturer's protocol. The protein concentration was determined by the method of Bradford (1976). Aliquots of 100 μl were used to quantify β-amyloid peptides 1-40 and 1-42 in quadruplicate by ELISA (IBL, Hamburg, Germany) following the manufacturer's instructions. All obtained intracellular and extracellular concentrations were normalized to cell numbers and protein concentration, respectively.
For the calculation of the concentration of β-amyloid peptides 1-40 and 1-42 in the cell culture medium after PEP-inhibitor treatment, the basal concentration of β-amyloid peptides 1-40 and 1-42 in the cell culture medium of untreated cell samples was set to 100%. The results of the measurement of the concentration of β-amyloid peptides 1-40 and 1-42 with PEP-inhibitor treated cells are presented as % of the untreated cell samples.
In general terms: In an ELISA, binding on a coated surface is turned into a signal by an enzyme label.

In experiment [3] the test system is human glial U-343 cells. The experiment in a line: IL-6 ELISA, basal secretion of IL-6. The conditions noted are these: inhibitor 20 μM, 24 hours, serum-free medium, untreated control = 100%, read-out: Extracellular IL-6 concentration, % of untreated cells. In kind it is cell-based. How it is done: To analyze basal secretion of IL-6, human glial U-343 cells were cultured in 6 well plates (1.5×10^6 cells/well, Greiner) and treated with specific PEP inhibitors as indicated (20 μM each) for 24 hours in serum-free D-MEM medium (invitrogen). Aliquots of 40 μl conditioned medium were used to quantify the amount of secreted IL-6 by an human-specific IL-6 ELISA (Biosource) following the manufacturer's instructions. All data were obtained in quadruplicate. For the calculation of the IL-6 concentration in the cell culture medium after PEP-inhibitor treatment, the basal IL-6 concentration of the cell culture medium of untreated cell samples was set to 100%. The results of the measurement of the IL-6 concentration with PEP-inhibitor treated cells are presented as % of the untreated cell samples.

Molecules are shown by their SMILES.

Regarding `O=C(OCN1C(=O)c2ccccc2C1=O)c1ccccc1C(=O)c1cccs1` [Example 9], the IC50 entry in experiment [1] is reported as “n.i”. Also, the figures for the activity at 20 µM in experiment [2] and in experiment [3] were 113% and 124%, respectively.

With `COc1cccc(COC(=O)c2ccccc2C(=O)c2cccs2)c1` [Example 18], in experiment [1], the IC50 entry is given as “n.i”. The activity at 20 µM amounted to 106% in experiment [2] and 63.3% in experiment [3].
